One assay deals with HCV GT1a replicon cells. Nature of the assay: HCV replicon assay, GT1a replicon cells. The following applies: Hepatitis C virus, 72 hours incubation, luciferase reporter or NEO gene qPCR readout, read-out: EC50 against HCV 1a genotype. It is filed as cell-based. How it is done:
(§1) An HCV Replicon assay was utilized in the present disclosure, and was prepared, developed and validated as described in Science, 1999, 285 (5424), 110-3 and J. Virol., 2003, 77 (5), 3007-19.
(§2) HCV GT1a, GT1b and GT2a replicon cells were used to test the currently described compound series as well as wild-type cells HCV 1b and resistant cells Y^93H, L31F, P32L and I302V. GT1a and CT1b are HCV Replicon System which is transfected HCV 1a, 1b genotype respectively.
(§3) 1. Testing EC50 of the Compounds by Luciferase Assay
(§4) The GT1b cells and GT1a cells were seeded into 96-well plates (8,000 cells in 125 μl/well) respectively; each compound was diluted to desired concentration using 5-fold serial dilutions protocol, 10 dose in duplicate, and added to wells with POD™ 810 Plate Assembler. The final concentration of DMSO was 0.5%; the plates were incubated in a CO2 incubator for 72 hours; after that, 40 μl of Luciferase assay substrate (Promega Bright-Glo) was added to each well, and detected by a chemiluminescence detection system (Topcount Microplate Scintillation and Luminescence Counter) 5 minutes later; data analysis.
(§5) 2. Testing EC50 of the Compounds by Detecting Antibiotic G418 Resistance Gene NEO Gene
(§6) The GT1b cells and GT1a cells were seeded into 96-well plates (8,000 cells in 125 μl/well) respectively; each compound was diluted to desired concentration using 5-fold serial dilutions protocol, 10 dose in duplicate, and added to wells with POD™ 810 Plate Assembler., the final concentration of DMSO was 0.5%; the cells were incubated in a CO2 incubator for 72 hours; quantitative PCR. • Sample preparation: the supernatant was removed, 100 μl of FCW buffer solution was added to each well, washed carefully and discarded the solution; 50 μl of lysate FCP was added to each well, the cells was lysed as PCR template and diluted with DEPC water. • Quantitative PCR: preparation of reaction mixture according to PCR system; the reaction mixture was dispensed into a 384-well PCR reaction plate (specially for quantitative); and a standard template which was diluted in proportion was distributed into the plate; and the sample template was distributed into the plate; then the 384-well plate was sealed with closure plate membrane; the […] PCR machine was operated by procedures; data analysis.
(§7) 3. Data Processing: The EC50 Values of Compounds were Analyzed by GraphPad Prism Software.
A general note: A replicon is a self-replicating genome or part of one, used to study replication in cells.

The next assay relates to HCV GT1b replicon cells. The assay can be described thus: HCV replicon assay, GT1b replicon cells. It is filed as cell-based. The following applies: Hepatitis C virus, 72 hours incubation, luciferase reporter or NEO gene qPCR readout, read-out: EC50 against HCV 1b genotype. Here is the method:
as §1, §2, §3, §4, §5, §6, §7

The results in this text go back to patent US9309231B2, “Bridged ring compounds as hepatitis C virus (HCV) inhibitors and pharmaceutical applications thereof” (SUNSHINE LAKE PHARMA CO., LTD, priority 2012, dated 2016).

What is called EC50 is the concentration needed to bring the measured effect to its halfway point.

Consider `COC(=O)N[C@H](C(=O)N1CCCC1c1ncc(C#Cc2ccc(C#Cc3cnc([C@@H]4CCCN4C(=O)[C@@H](NC(=O)OC)C(C)C)[nH]3)c3c2C2CCC3C2)[nH]1)C(C)C` (some centres unmarked) [Example 19], for which the EC50 in the assay on HCV GT1a replicon cells amounted to 0.087 nM; in the assay with HCV GT1b replicon cells it was 0.026 nM.

On to `COC(=O)N[C@H](C(=O)N1CCC[C@H]1c1ncc(C#Cc2ccc(C#Cc3cnc([C@@H]4CCCN4C(=O)[C@@H](NC(=O)OC)C(C)C)[nH]3)c3c2C2CCC3N2C)[nH]1)C(C)C` [Example 24], for which the EC50 in the assay on HCV GT1a replicon cells came out at 0.453 nM; in the assay on HCV GT1b replicon cells it was 0.096 nM.

Take `COC(=O)N[C@H](C(=O)N1CCC[C@H]1c1ncc(-c2ccc(-c3ccc(-c4ccc5nc([C@@H]6CCCN6C(=O)[C@@H](NC(=O)OC)C(C)C)[nH]c5c4)c4c3C3CCC4CC3)cc2)[nH]1)C(C)C` [Example 21]: the EC50 worked out at 0.093 nM in the assay with HCV GT1a replicon cells and 0.013 nM with HCV GT1b replicon cells.

For the molecule `COC(=O)N[C@H](C(=O)N1C[C@@H](C)C[C@H]1c1ncc(-c2ccc(-c3ccc(-c4cnc([C@@H]5C[C@H](C)CN5C(=O)[C@@H](NC(=O)OC)C(C)C)[nH]4)c4c3C3CCC4C3)cc2)[nH]1)C(C)C` (some centres unmarked) [Example 20], the EC50 was less than 0.001 nM in the assay on HCV GT1a replicon cells and 0.045 nM with HCV GT1b replicon cells.

Turning to `COC(=O)N[C@H](C(=O)N1CCC[C@H]1c1ncc(-c2ccc(-c3nnc(-c4ccc5[nH]c([C@@H]6CCCN6C(=O)[C@@H](NC(=O)OC)C(C)C)nc5c4)c4c3C3CCC4CC3)cc2)[nH]1)C(C)C` [Example 11], the EC50 with HCV GT1a replicon cells was 0.049 nM; in the assay on HCV GT1b replicon cells, 0.023 nM.

`COC(=O)N[C@H](C(=O)N1C[C@H](C)C[C@H]1c1ncc(-c2ccc(-c3ccc(-c4cnc([C@@H]5C[C@@H](C)CN5C(=O)[C@@H](NC(=O)OC)C(C)C)[nH]4)c4c3C3CCC4CC3)cc2)[nH]1)C(C)C` [Example 59]: the figures for the concentration giving a half-maximal response (EC50) in the assay with HCV GT1a replicon cells and in the assay on HCV GT1b replicon cells were 0.037 nM and 0.008 nM, respectively.

Take `COC(=O)N[C@H](C(=O)N1CCCC1c1nc2ccc(-c3ccc(-c4ccc5nc([C@@H]6CCCN6C(=O)[C@@H](NC(=O)OC)C(C)C)[nH]c5c4)c4c3C3CCC4O3)cc2[nH]1)C(C)C` (some centres unmarked) [Example 65]: the half-maximal effective concentration (EC50) was found to be 0.064 nM in the assay on HCV GT1a replicon cells and 0.013 nM in the assay on HCV GT1b replicon cells.

`[2H]C([2H])([2H])C([2H])(C([2H])([2H])[2H])[C@]([2H])(NC(=O)OC)C(=O)N1CCC[C@H]1c1ncc(-c2ccc(-c3ccc(-c4cnc([C@@H]5CC6CC6N5C(=O)[C@@]([2H])(NC(=O)OC)C([2H])(C([2H])([2H])[2H])C([2H])([2H])[2H])[nH]4)cc3)c3c2C2CCC3C2)[nH]1` (some centres unmarked) [Example 76]: the EC50 with HCV GT1a replicon cells came to 0.127 nM; in the assay with HCV GT1b replicon cells it was 0.013 nM.

`COC(=O)N[C@@H](C)C(=O)N1CCCC[C@H]1c1ncc(-c2ccc(-c3ccc(-c4ccc5nc([C@@H]6CCCCN6C(=O)[C@H](C)NC(=O)OC)[nH]c5c4)c4c3C3CCC4N3C)cc2)[nH]1` (some centres unmarked) [Example 35]: the EC50 in the assay with HCV GT1a replicon cells stood at 0.103 nM; with HCV GT1b replicon cells it was 0.017 nM.

Consider `COC(=O)N[C@H](C(=O)N1C2CC2C[C@H]1c1ncc(-c2ccc(-c3ccc(-c4ccc(-c5cnc([C@@H]6NC7CC7N6C(=O)[C@@H](NC(=O)OC)C(C)C)[nH]5)cc4)c4c3C3CCC4C3)cc2)[nH]1)C(C)C` (some centres unmarked) [Example 45], for which the EC50 amounted to 3.07 nM in the assay on HCV GT1a replicon cells and 0.113 nM in the assay on HCV GT1b replicon cells.

Regarding `COC(=O)N[C@H](C(=O)N1CCC[C@H]1c1ncc(-c2ccc(-c3ccc(-c4cnc([C@@H]5CCCN5C(=O)[C@@H](NC(=O)OC)C5CCCCC5)[nH]4)c4c3C3CCC4C3)cc2)[nH]1)C1CCCCC1` (some centres unmarked) [Example 10], the values for the EC50 in the assay with HCV GT1a replicon cells and in the assay on HCV GT1b replicon cells were 0.374 nM and 0.013 nM, respectively.

As for `COC(=O)N[C@H](C(=O)N1CCC[C@H]1c1ncc(-c2ccc(-c3nnc(-c4ccc5[nH]c([C@@H]6CCCN6C(=O)[C@@H](NC(=O)OC)C(C)C)nc5c4)c4c3C3CCC4C3)cc2)[nH]1)C(C)C` (some centres unmarked) [Example 12], the results for the half-maximal effective concentration (EC50) with HCV GT1a replicon cells and in the assay with HCV GT1b replicon cells were 0.658 nM and 0.373 nM, respectively.

As to `[2H]C([2H])([2H])C([2H])(C([2H])([2H])[2H])[C@]([2H])(NC(=O)OC)C(=O)N1CCC[C@H]1c1ncc(-c2ccc(-c3nnc(-c4ccc5[nH]c([C@@H]6CCCN6C(=O)[C@@]([2H])(NC(=O)OC)C([2H])(C([2H])([2H])[2H])C([2H])([2H])[2H])nc5c4)c4c3C3CCC4CC3)cc2)[nH]1` [Example 78], the EC50 in the assay with HCV GT1a replicon cells was 0.045 nM; in the assay with HCV GT1b replicon cells it was 0.007 nM.

In the case of `COC(=O)N[C@H](C(=O)N1CCC[C@H]1c1ncc(-c2ccc(-c3ccc(-c4cnc([C@@H]5CCCN5C(=O)[C@@H](NC(=O)OC)C(C)C)[nH]4)c4c3C3CCC4C3)cc2)[nH]1)C(C)C` (some centres unmarked) [Example 18], the figures for the EC50 with HCV GT1a replicon cells and in the assay with HCV GT1b replicon cells were 0.138 nM and 0.014 nM, respectively.

In the case of `COC(=O)N[C@H](C(=O)N1C[C@@H](F)CC1c1ncc(-c2ccc(-c3ccc(-c4cnc(C5C[C@H](F)CN5C(=O)[C@@H](NC(=O)OC)C(C)C)[nH]4)c4c3C3CCC4C3)cc2)[nH]1)C(C)C` (some centres unmarked) [Example 13], the EC50 with HCV GT1a replicon cells is 0.53 nM; in the assay with HCV GT1b replicon cells, 0.034 nM.

Regarding `COC(=O)N[C@H](C(=O)N1C[C@H](C)C[C@H]1c1ncc(-c2ccc(-c3ccc(-c4cnc([C@@H]5C[C@H](C)CN5C(=O)[C@@H](NC(=O)OC)C(C)C)[nH]4)c4c3C3CCC4N3C)cc2)[nH]1)C(C)C` (some centres unmarked) [Example 33], the EC50 in the assay on HCV GT1a replicon cells was found to be 0.038 nM; in the assay with HCV GT1b replicon cells it was 0.009 nM.

`COC(=O)N[C@H](C(=O)N1CCC[C@H]1c1ncc(-c2ccc(-c3ccc(-c4ccc5nc([C@@H]6CCCN6C(=O)[C@@H](NC(=O)OC)C(C)C)[nH]c5c4)c4c3C3CCC4C3)s2)[nH]1)C(C)C` (some centres unmarked) [Example 38]: the EC50 amounted to 0.064 nM in the assay with HCV GT1a replicon cells and 0.017 nM in the assay with HCV GT1b replicon cells.

As for `COC(=O)N[C@H](C(=O)N1CCC[C@H]1c1nc2ccc(-c3ccc(-c4ccc5nc([C@@H]6CCCN6C(=O)[C@@H](NC(=O)OC)C(C)C)[nH]c5c4)c4c3C3CCC4N3C)cc2[nH]1)C(C)C` [Example 25], the EC50 in the assay with HCV GT1a replicon cells is 0.083 nM; with HCV GT1b replicon cells it was 0.032 nM.

As for `COC(=O)N[C@H](C(=O)N1CCC[C@H]1c1nc2cc(-c3ccc(-c4ccc5[nH]c([C@@H]6CCCN6C(=O)[C@@H](NC(=O)OC)C(C)C)nc5c4)c4c3C3CCC4C3)ccc2[nH]1)C(C)C` [Example 6], the values for the EC50 in the assay on HCV GT1a replicon cells and in the assay with HCV GT1b replicon cells were 0.047 nM and 0.006 nM, respectively.

On to `COC(=O)N[C@H](C(=O)N1CCC[C@H]1C(=O)Nc1ccc(-c2ccc(-c3ccc(-c4cnc([C@@H]5CCCN5C(=O)[C@@H](NC(=O)OC)C(C)C)[nH]4)cc3)c3c2C2CCC3C2)cc1)C(C)C` (some centres unmarked) [Example 49], for which the EC50 with HCV GT1a replicon cells is 0.855 nM; with HCV GT1b replicon cells it was 0.083 nM.

Regarding `COC(=O)N[C@H](C(=O)N1CCC[C@H]1c1ncc(-c2ccc(-c3ccc(-c4ccc5nc([C@@H]6CCCN6C(=O)[C@@H](NC(=O)OC)C(C)C)[nH]c5c4)c4c3C3CCC4N3C)nc2)[nH]1)C(C)C` (some centres unmarked) [Example 34], the EC50 in the assay on HCV GT1a replicon cells came out at 0.054 nM; in the assay on HCV GT1b replicon cells, 0.006 nM.

Consider `COC(=O)N[C@@H](C)C(=O)N1CCC[C@H]1c1ncc(-c2ccc(-c3ccc(-c4ccc5[nH]c([C@@H]6CCCN6C(=O)[C@H](C)NC(=O)OC)nc5c4)c4c3C3CCC4C3)cc2)[nH]1` (some centres unmarked) [Example 7], for which the EC50 in the assay on HCV GT1a replicon cells came out at 0.094 nM; in the assay on HCV GT1b replicon cells, 0.076 nM.
